Experimental data reported in patent US7816497B2, “Compositions and methods for inhibiting drusen complement components C3a and C5a for the treatment of age-related macular degeneration” (University of Kentucky, priority 2002, dated 2010).

Columns and labels:
human RPE cells = assay: VEGF secretion by human RPE cells (VEGF ELISA); type: cell-based; settings: 50 ng/ml; confluent and subconfluent conditions; compared to PBS
Description: Human RPE cells (gift of David R. Hinton, University of Southern California) were cultured in Dulbecco's modified essential medium (Invitrogen) containing 10% fetal bovine serum, penicillin G (100 U/ml), streptomycin sulfate (0.1 mg/ml) (all from Sigma-Aldrich) at 37° C. under 10% CO2 and 90% room air. Cells were used for experiments upon attaining 80% or 100% confluence.
(§1) The RPE/choroid complex was dissected from the mouse eye and sonicated in lysis buffer (20 mM imidazole HCl, 10 mM KCl, 1 mM MgCl2, 10 mM EGTA, 1% Triton X-100, 10 mM NaF, 1 mM Na molybdate, 1 mM EDTA with protease inhibitor (Sigma-Aldrich)) on ice for 45 sec. VEGF protein levels (pg/ml) in the RPE cell culture supernatant or the RPE/choroid lysate were determined by ELISA (R&D Systems) and normalized to total protein (μg/ml) (Bio-Rad).
(§2) VEGF protein data are represented as the mean±s.e.m. of at least 3 independent experiments and compared using a two-tailed Student's t-test. The null hypothesis was rejected at P<0.05.

VEGF = VEGF levels in mouse eye tissue after intravitreous injection (VEGF ELISA); type: in vivo; settings: wild-type mice, 4 hours after injection, dose-dependent
Description: as §1, §2

[1] = test system: macrophages or neutrophils in the choroid; assay: Leukocyte numbers in the choroid after intravitreous injection (flow cytometry); type: in vivo, mice; settings: 4 hours after intravitreous injection; data not shown
Description: Single cell suspensions isolated from mouse RPE/choroids via collagenase D treatment (20 U/mL; Roche Diagnostics) were incubated in Fc block (0.5 mg/mL; BD Pharmingen) for 15 min on ice, stained with Cy5-rat antibody to mouse F4/80 (1:30; Serotec), FITC-hamster antibody to mouse CD11c (1:100; Serotec), or PE-rat antibody to mouse Gr-1 (1:200; eBioscience), and subjected to FACS analysis (FACScalibur, BD Biosciences). Macrophages and neutrophils were defined as F4/80+CD11c- and Gr-1+F4/80-cells, respectively.

laser-induced CNV = assay: Laser-induced CNV in wild-type mice, intravitreous injection of complement blockers; type: in vivo; settings: intravitreous injection immediately after laser injury, compared with control peptide or isotype control antibodies
Description: Laser photocoagulation (532 nm, 200 mW, 100 ms, 75 μm) (OcuLight GL, Iridex) was performed (volume studies: 3/eye; protein analyses/flow cytometry: 12/eye) on both eyes of each animal to induce CNV as previously described in Sakurai, E., Taguchi, H., Anand, A., Ambati, B. K., Gragoudas, E. S., Miller, J. W., Adamis, A. P. & Ambati, J. (2003) Invest Ophthalmol Vis Sci 44, 2743-9; and Sakurai, E., Anand, A., Ambati, B. K., van Rooijen, N. & Ambati, J. (2003) Invest Ophthalmol Vis Sci 44, 3578-85. CNV volumes were measured by scanning laser confocal microscope (TCS SP, Leica) as previously reported (Id.) with 0.5% FITC-Griffonia simplicifolia Isolectin B4 (Vector Laboratories) or 0.5% FITC-rat antibody against mouse CD31 (BD Pharmingen). Volumes obtained by lectin and CD31 staining were highly correlated (r^2=0.95). […]
Because the probability of each laser lesion developing CNV is influenced by the group to which it belongs, the mouse, the eye, and the laser spot, the mean lesion volumes were compared using a linear mixed model with a split plot repeated measures design, as previously described. […] Statistical significance was determined at the 0.05 level. […]

In the case of “C3a: activated complement component 3 (human), applied to RPE cells or injected intravitreously”, the “human RPE cell secretion of VEGF” value (human RPE cells) is reported as “upregulated”, the “VEGF levels in the RPE/choroid” value (VEGF) is reported as “increase” and the “number of macrophages or neutrophils in the choroid” value [1] is reported as “no increase”.

N=C(N)NCCC[C@H](NC(=O)COCC(c1ccccc1)c1ccccc1)C(=O)O [C3aRA, N^2-[(2,2-diphenylethoxy)acetyl]-arginine] was tested, and the “CNV (volume of laser-induced CNV)” value (laser-induced CNV) was “reduced”.

For AcF[OPdChaWR] [C5aRA], the “CNV (volume of laser-induced CNV)” value (laser-induced CNV) was “reduced”.

B1: C5a: activated complement component 5 (human), applied to RPE cells or injected intravitreously (protein, UniProt P01031 678-751, looked up)
C5a anaphylatoxin: TLQKKIEEIAAKYKHSVVKKCCYDGACVNNDETCEQRAARISLGPRCIKAFTECCVVASQLRANISHKDMQLGR
modifications: C5a anaphylatoxin
In the case of B1, the “human RPE cell secretion of VEGF” value (human RPE cells) is reported as “upregulated”, the “VEGF levels in the RPE/choroid” value (VEGF) is reported as “increase” and the “number of macrophages or neutrophils in the choroid” value [1] is reported as “no increase”.
